CC(N)=S
Details	solubility (mole fraction)
in 2-butanone, 272.85 K	0.137
in 2-butanone, 279.35 K	0.157
in 2-butanone, 282.55 K	0.167
in 2-butanone, 287.95 K	0.185
in 2-butanone, 293.35 K	0.205
in 2-butanone, 297.85 K	0.223
in 2-butanone, 303.05 K	0.244
in 2-butanone, 308.55 K	0.268
in 2-butanone, 313.15 K	0.289
in 2-butanone, 318.05 K	0.312
in 2-butanone, 323.95 K	0.343
in 2-pentanone, 272.85 K	0.111
in 2-pentanone, 279.35 K	0.127
in 2-pentanone, 282.55 K	0.136
in 2-pentanone, 287.95 K	0.152
in 2-pentanone, 293.35 K	0.169
in 2-pentanone, 297.85 K	0.183
in 2-pentanone, 303.05 K	0.202
in 2-pentanone, 308.55 K	0.222
in 2-pentanone, 313.15 K	0.24
in 2-pentanone, 318.05 K	0.26
in 2-pentanone, 323.95 K	0.286
in acetone, 272.85 K	0.144
in acetone, 279.35 K	0.165
in acetone, 282.55 K	0.176
in acetone, 287.95 K	0.195
in acetone, 293.35 K	0.216
in acetone, 297.85 K	0.234
in acetone, 303.05 K	0.257
in acetone, 308.55 K	0.282
in acetone, 313.15 K	0.304
in acetone, 318.05 K	0.329
in acetone, 323.95 K	0.36
in acetonitrile, 272.85 K	0.0478
in acetonitrile, 279.35 K	0.061
in acetonitrile, 282.55 K	0.0685
in acetonitrile, 287.95 K	0.0828
in acetonitrile, 293.35 K	0.0993
in acetonitrile, 297.85 K	0.115
in acetonitrile, 303.05 K	0.136
in acetonitrile, 308.55 K	0.16
in acetonitrile, 313.15 K	0.184
in acetonitrile, 318.05 K	0.211
in acetonitrile, 323.95 K	0.249
in ethanol, 273.15 K	0.064
in ethanol, 277.95 K	0.0752
in ethanol, 283.45 K	0.0901
in ethanol, 288.25 K	0.105
in ethanol, 293.25 K	0.122
in ethanol, 298.15 K	0.141
in ethanol, 302.35 K	0.159
in ethanol, 308.05 K	0.186
in ethanol, 313.35 K	0.214
in ethanol, 318.25 K	0.243
in ethanol, 323.15 K	0.274
in ethyl acetate, 272.85 K	0.0646
in ethyl acetate, 279.35 K	0.0773
in ethyl acetate, 282.55 K	0.0843
in ethyl acetate, 287.95 K	0.0969
in ethyl acetate, 293.35 K	0.111
in ethyl acetate, 297.85 K	0.124
in ethyl acetate, 303.05 K	0.14
in ethyl acetate, 308.55 K	0.158
in ethyl acetate, 313.15 K	0.175
in ethyl acetate, 318.05 K	0.194
in ethyl acetate, 323.95 K	0.219
in ethyl formate, 272.85 K	0.0427
in ethyl formate, 279.35 K	0.0536
in ethyl formate, 282.55 K	0.0596
in ethyl formate, 287.95 K	0.0711
in ethyl formate, 293.35 K	0.0843
in ethyl formate, 297.85 K	0.0965
in ethyl formate, 303.05 K	0.113
in ethyl formate, 308.55 K	0.131
in ethyl formate, 313.15 K	0.149
in ethyl formate, 318.05 K	0.17
in ethyl formate, 323.95 K	0.198
in isobutanol, 273.15 K	0.0323
in isobutanol, 277.95 K	0.0401
in isobutanol, 283.45 K	0.0508
in isobutanol, 288.25 K	0.0621
in isobutanol, 293.25 K	0.0761
in isobutanol, 298.15 K	0.0922
in isobutanol, 302.35 K	0.108
in isobutanol, 308.05 K	0.133
in isobutanol, 313.35 K	0.16
in isobutanol, 318.25 K	0.189
in isobutanol, 323.15 K	0.223
in isopentanol, 273.15 K	0.0333
in isopentanol, 277.95 K	0.0415
in isopentanol, 283.45 K	0.0528
in isopentanol, 288.25 K	0.0648
in isopentanol, 293.25 K	0.0796
in isopentanol, 298.15 K	0.0968
in isopentanol, 302.35 K	0.114
in isopentanol, 308.05 K	0.141
in isopentanol, 313.35 K	0.171
in isopentanol, 318.25 K	0.203
in isopentanol, 323.15 K	0.239
in isopropanol, 273.15 K	0.0439
in isopropanol, 277.95 K	0.0532
in isopropanol, 283.45 K	0.066
in isopropanol, 288.25 K	0.0792
in isopropanol, 293.25 K	0.0949
in isopropanol, 298.15 K	0.113
in isopropanol, 302.35 K	0.13
in isopropanol, 308.05 K	0.158
in isopropanol, 313.35 K	0.186
in isopropanol, 318.25 K	0.216
in isopropanol, 323.15 K	0.251
in methanol, 273.15 K	0.0894
in methanol, 277.95 K	0.104
in methanol, 283.45 K	0.123
in methanol, 288.25 K	0.141
in methanol, 293.25 K	0.163
in methanol, 298.15 K	0.186
in methanol, 302.35 K	0.208
in methanol, 308.05 K	0.241
in methanol, 313.35 K	0.275
in methanol, 318.25 K	0.31
in methanol, 323.15 K	0.348
in methyl acetate, 272.85 K	0.0603
in methyl acetate, 279.35 K	0.074
in methyl acetate, 282.55 K	0.0815
in methyl acetate, 287.95 K	0.0957
in methyl acetate, 293.35 K	0.112
in methyl acetate, 297.85 K	0.126
in methyl acetate, 303.05 K	0.145
in methyl acetate, 308.55 K	0.167
in methyl acetate, 313.15 K	0.187
in methyl acetate, 318.05 K	0.211
in methyl acetate, 323.95 K	0.242
in n-butanol, 273.15 K	0.0417
in n-butanol, 277.95 K	0.0524
in n-butanol, 283.45 K	0.0674
in n-butanol, 288.25 K	0.0833
in n-butanol, 293.25 K	0.103
in n-butanol, 298.15 K	0.126
in n-butanol, 302.35 K	0.149
in n-butanol, 308.05 K	0.186
in n-butanol, 313.35 K	0.227
in n-butanol, 318.25 K	0.271
in n-butanol, 323.15 K	0.321
in n-pentanol, 273.15 K	0.0507
in n-pentanol, 277.95 K	0.0598
in n-pentanol, 283.45 K	0.0716
in n-pentanol, 288.25 K	0.0835
in n-pentanol, 293.25 K	0.0975
in n-pentanol, 298.15 K	0.113
in n-pentanol, 302.35 K	0.127
in n-pentanol, 308.05 K	0.149
in n-pentanol, 313.35 K	0.172
in n-pentanol, 318.25 K	0.196
in n-pentanol, 323.15 K	0.222
in n-propanol, 273.15 K	0.0503
in n-propanol, 277.95 K	0.0608
in n-propanol, 283.45 K	0.0748
in n-propanol, 288.25 K	0.0891
in n-propanol, 293.25 K	0.106
in n-propanol, 298.15 K	0.126
in n-propanol, 302.35 K	0.144
in n-propanol, 308.05 K	0.173
in n-propanol, 313.35 K	0.203
in n-propanol, 318.25 K	0.236
in n-propanol, 323.15 K	0.272

From BigSolDB 2.1
